EC50 data for 30 compounds are collected here from patent US11008323B2, “Substituted tricyclic 1,4-benzodiazepinone derivatives as allosteric modulators of group II metabotropic glutamate receptors” (Domain Therapeutics, priority 2015, dated 2021).

Usually EC50 stands for the concentration needed to bring the measured effect to its halfway point.

The structures appear in SMILES notation. A value given as a limit tells only on which side of the number the result lay.

The test deals with T1, human mGluR3 (hmGluR3) (Homo sapiens, UniProt Q14832).
T1 construct: expressed in transfected cells; host or cells: HEK-293 cells, transient co-transfection by electroporation
T1 sequence (Q14832 23-879): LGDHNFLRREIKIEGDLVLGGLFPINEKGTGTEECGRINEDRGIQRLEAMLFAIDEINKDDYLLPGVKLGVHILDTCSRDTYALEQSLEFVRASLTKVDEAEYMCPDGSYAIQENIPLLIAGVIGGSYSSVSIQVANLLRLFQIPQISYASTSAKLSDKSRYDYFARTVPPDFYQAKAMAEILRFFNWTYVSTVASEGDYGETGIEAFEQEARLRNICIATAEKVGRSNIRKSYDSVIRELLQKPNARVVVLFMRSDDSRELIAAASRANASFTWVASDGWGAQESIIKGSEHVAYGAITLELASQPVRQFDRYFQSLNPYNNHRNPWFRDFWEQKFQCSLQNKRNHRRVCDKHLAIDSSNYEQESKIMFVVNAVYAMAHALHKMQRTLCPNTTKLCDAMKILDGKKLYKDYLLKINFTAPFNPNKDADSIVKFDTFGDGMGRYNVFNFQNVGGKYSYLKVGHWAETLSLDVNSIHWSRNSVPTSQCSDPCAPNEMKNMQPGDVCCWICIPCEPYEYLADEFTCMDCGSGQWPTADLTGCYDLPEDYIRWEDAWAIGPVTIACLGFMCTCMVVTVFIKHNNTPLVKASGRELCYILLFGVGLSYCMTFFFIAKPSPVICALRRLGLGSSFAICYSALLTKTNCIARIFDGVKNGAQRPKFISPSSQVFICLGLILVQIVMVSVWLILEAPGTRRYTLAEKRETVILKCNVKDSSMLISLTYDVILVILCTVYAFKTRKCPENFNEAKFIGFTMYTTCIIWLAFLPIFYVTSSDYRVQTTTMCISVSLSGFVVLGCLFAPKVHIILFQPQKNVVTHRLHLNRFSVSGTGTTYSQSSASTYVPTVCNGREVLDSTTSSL
Briefly: Human mGluR3 positive allosteric modulator evaluation using Ca++ functional assay. The test is classed as cell-based. The conditions noted are these: hmGluR3 transiently over-expressed in HEK-293 cells; stimulated by EC50 glutamate concentration; intracellular Ca2+ (Fluo4AM, FLIPR Tetra). The protocol:
Compounds of the present invention were tested successively for their agonist and positive allosteric modulator activities on human mGluR3 (hmGluR3) transiently over-expressed in HEK-293 cells. Compounds exert agonist activity if they are able to activate hmGluR3 by themselves, i.e., in absence of the endogenous agonist glutamate; and they exert positive allosteric modulator activity if they increase the action of the endogenous agonist glutamate.
HEK-293 cells were maintained in Modified Eagle's Medium supplemented with 10% Foetal Calf Serum, 1% Penicillin/Streptomycin and 1% non-essential amino acids at 37° C./5% CO2.
Cells were co-transfected by electroporation with four DNA plasmids encoding hmGluR3, a chimeric G protein allowing redirection of the activation signal toward intracellular calcium pathway, and two glutamate transporters so as to decrease extracellular glutamate levels and avoid receptor desensitization (Brabet I et al., Neuropharmacology 37(8), 1043-51, 1998). After transfection, cells were seeded in 75 cm^2 culture flasks, and cultured for 24 h.
Receptor activity was detected by changes in intracellular calcium measured using the fluorescent Ca^2+ sensitive dye, Fluo4AM (Molecular Probes).
The day of the assay, medium was aspirated and replaced during 3 hrs by freshly prepared buffer B (HBSS 1×, Hepes 20 mM, MgSO4-7H2O 1 mM, Na2CO3 3.3 mM, CaCl2-2H2O 1.3 mM, 0.5% BSA, Probenecid 2.5 mM). Then, cells were loaded at 37° C./5% CO2 for 1.5 hrs with buffer B containing 1 μM Fluo4AM, 0.1 mg/mL Pluronic Acid, 7 μg/mL Glutamate Pyruvate Transaminase and 2 mM sodium pyruvate. Afterwards cells were washed with buffer B. Cells were then detached from the 75 cm^2 culture flasks with Accutase® (5 min incubation at 37° C.), centrifuged (5 min at 840 rpm), resuspended in buffer B and finally seeded at a density of 30,000 cells/well in black-walled clear-bottom 384-well plates. Addition of compounds on cells and intracellular Ca^2+ measurements (excitation 485 nm, emission 525 nm) were performed by the fluorescence microplate reader FLIPR Tetra (Molecular Devices).
Agonist and positive allosteric modulator activities of compounds were consecutively evaluated on the same cells plate. Agonist activity was first tested during 10 min with the addition of compound alone on the cells. Then, the cells were stimulated by an EC50 glutamate concentration and fluorescence was recorded for additional 3 min. EC50 glutamate concentration is the concentration giving 50% of the maximal glutamate response. Agonist and/or positive allosteric modulator activity(ies) were evaluated in comparison to basal signal or signal evoked by EC50 glutamate concentration alone, respectively.
For potency determination, a dose-response test was performed using 20 concentrations of each compound of the invention. Dose-response curves were fitted using the sigmoïdal dose-response (variable slope) analysis in XLfit Scientific Curve Fitting for Excel (IDBS). EC50 of agonist/EC50 of positive allosteric modulator activity(ies) were calculated. Dose-response experiments were all performed in duplicate, two times independently.
Compound `CN1C(=O)c2cccn2-c2cc(-c3ccc(Cl)nc3)ccc2C12CC2` [Example 54, 5-Methyl-9-(6-chloropyridin-3-yl)-spiro[benzo[f]pyrrolo[1,2-a][1,4]diazepine-6,1′-cyclopropan]-4(5H)-one] yielded an EC50 below 100 nM.

The compound `CN(C)c1ncccc1-c1ccc2c(c1)-n1cc(-c3ccccc3)cc1C(=O)N(C)C21CC1` [Example 119, 5-Methyl-2-phenyl-9-(2-dimethylamino-pyridin-3-yl)-spiro[benzo[f]pyrrolo[1,2-a][1,4]diazepine-6,1′-cyclopropan]-4(5H)-one] displayed an EC50 above 1000 nM.

As to `Cc1ncccc1-c1ccc2c(c1)-n1cc(-c3cc[nH]n3)cc1C(=O)N(C)C21CC1` [Example 146], the EC50 is below 100 nM.

Turning to `Cc1ncccc1-c1ccc2c(c1)-n1cc(N(C)C)cc1C(=O)N(C)C21CC1` [Example 154], the EC50 lay within 100 to 1000 nM.

As for `Cc1ncccc1-c1ccc2c(c1)-n1ccc(Cl)c1C(=O)N(C)C21CC1` [Example 84, 9-(2-Methyl-pyridin-3-yl)-3-chloro-5-methyl-spiro[benzo[f]pyrrolo[1,2-a][1,4]diazepine-6,1′-cyclopropan]-4(5H)-one], the EC50 fell in the range of 100 to 1000 nM.

Consider `Cc1ncccc1-c1ccc2c(c1)-n1cc(-c3ccccc3Cl)cc1C(=O)N(C)C21CC1` [Example 147], for which the EC50 was 100 to 1000 nM.

Compound `Cc1ncccc1-c1ccc2c(c1)-n1cc(Cl)cc1C(=O)N(C)C21CC1` [Example 82, 9-(2-Methyl-pyridin-3-yl)-2-chloro-5-methyl-spiro[benzo[f]pyrrolo[1,2-a][1,4]diazepine-6,1′-cyclopropan]-4(5H)-one] showed an EC50 below 100 nM.

Take `CN1C(=O)c2cc(-c3ccccc3)nn2-c2cc(-c3ccccc3Cl)ccc2C12CC2` [Example 131, 9-(2-Chloro-phenyl)-5-methyl-2-phenyl-spiro[benzo[f]pyrazolo[1,5-a][1,4]diazepine-6,1′-cyclopropan]-4(5H)-one]: the EC50 is above 1000 nM.

The compound `CN1C(=O)c2cccn2-c2cc(-c3cnc(N)c(C(F)(F)F)c3)ccc2C12CC2` [Example 40, 5-Methyl-9-(6-amino-5-trifluoromethyl-pyridin-3-yl)-spiro[benzo[f]pyrrolo[1,2-a][1,4]diazepine-6,1′-cyclopropan]-4(5H)-one] returned an EC50 above 1000 nM.

Turning to `CN1C(=O)c2cccn2-c2cc(-c3ccc(N4CCOCC4)nc3)ccc2C12CC2` [Example 42, 5-Methyl-9-(6-morpholin-4-yl-pyridin-3-yl)-spiro[benzo[f]pyrrolo[1,2-a][1,4]diazepine-6,1′-cyclopropan]-4(5H)-one], the EC50 was in the range of 100 to 1000 nM.

For the compound `CN1C(=O)c2cccn2-c2cc(-c3cccnc3)ccc2C12CC2` [Example 23, 5-Methyl-9-(pyridin-3-yl)-spiro[benzo[f]pyrrolo[1,2-a][1,4]diazepine-6,1′-cyclopropan]-4(5H)-one], the EC50 is 100 to 1000 nM.

`CCN1Cc2ccc(-c3cccnc3C)cc2-n2cc(-c3ccccc3)nc2C1=O` [Example 167, 5-Ethyl-9-(2-methylpyridin-3-yl)-2-phenyl-5,6-dihydro-4H-benzo[f]imidazo[1,2-a][1,4]diazepin-4-one] displayed an EC50 above 1000 nM.

As for `Cc1ncccc1-c1ccc2c(c1)-n1c(cc(Cl)c1F)C(=O)N(C)C21CC1` [Example 83, 9-(2-Methyl-pyridin-3-yl)-2-chloro-1-fluoro-5-methyl-spiro[benzo[f]pyrrolo[1,2-a][1,4]diazepine-6,1′-cyclopropan]-4(5H)-one], the EC50 is below 100 nM.

For `Cc1ccc(-c2ccc3c(c2)-n2cc(-c4nccs4)cc2C(=O)N(C)C32CC2)cn1` [Example 158], the EC50 was below 100 nM.

Consider `CN1C(=O)c2cc(-c3ccccc3)cn2-c2ccc(Br)cc2C12CC2` [Example 16, 8-Bromo-5-methyl-2-phenyl-spiro[benzo[f]pyrrolo[1,2-a][1,4]diazepine-6,1′-cyclopropan]-4(5H)-one], for which the EC50 was above 1000 nM.

Compound `Cc1ncccc1-c1ccc2c(c1)-n1c(F)ccc1C(=O)N(C)C21CC1` [Example 81, 9-(2-Methyl-pyridin-3-yl)-1-fluoro-5-methyl-spiro[benzo[f]pyrrolo[1,2-a][1,4]diazepine-6,1′-cyclopropan]-4(5H)-one] returned an EC50 below 100 nM.

The compound `Cc1ncccc1-c1ccc2c(c1)-n1cc(C3CCCC3)cc1C(=O)N(C)C21CC1` [Example 156] displayed an EC50 of 100 to 1000 nM.

`CN1C(=O)c2cccn2-c2cc(C3=CCN(c4ccncn4)CC3)ccc2C12CC2` [Example 47, 5-Methyl-9-(1-pyrimidin-4-yl-1,2,3,6-tetrahydro-pyridin-4-yl)-spiro[benzo[f]pyrrolo[1,2-a][1,4]diazepine-6,1′-cyclopropan]-4(5H)-one] gave an EC50 of 100 to 1000 nM.

For the compound `Cc1ccc(-c2ccc3c(c2)-n2cc(-c4ccccc4)cc2C(=O)N(C)C32CC2)cn1` [Example 103, 5-Methyl-2-phenyl-9-(6-methyl-pyridin-3-yl)-spiro[benzo[f]pyrrolo[1,2-a][1,4]diazepine-6,1′-cyclopropan]-4(5H)-one], the EC50 was below 100 nM.

Take `Cc1ncccc1-c1ccc2c(c1)-n1cc(-c3cccc(Cl)c3)cc1C(=O)N(C)C21CC1` [Example 148]: the EC50 was 100 to 1000 nM.

For the compound `CN(C)c1ccc(-c2ccc3c(c2)-n2cc(-c4ccccc4)cc2C(=O)N(C)C32CC2)cn1` [Example 114, 5-Methyl-2-phenyl-9-(6-dimethylamino-pyridin-3-yl)-spiro[benzo[f]pyrrolo[1,2-a][1,4]diazepine-6,1′-cyclopropan]-4(5H)-one], the EC50 was below 100 nM.

`Cc1cc(-c2ccc3c(c2)-n2cc(-c4ccccc4)cc2C(=O)N(C)C32CC2)cc(C)n1` [Example 97, 5-Methyl-2-phenyl-9-(2,6-dimethyl-pyridin-4-yl)-spiro[benzo[f]pyrrolo[1,2-a][1,4]diazepine-6,1′-cyclopropan]-4(5H)-one]: the EC50 lay in the range of 100 to 1000 nM.

For `CCC1c2ccc(-c3cccnc3C)cc2-n2cccc2C(=O)N1C` (stereo not drawn) [Example 220, 6-Ethyl-5-methyl-9-(2-methyl-pyridin-3-yl)-5,6-dihydro-benzo[f]pyrrolo[1,2-a][1,4]diazepin-4-one], the EC50 lay within 100 to 1000 nM.

Compound `Cc1ncccc1-c1ccc2c(c1)-n1cc(CC3CCCC3)cc1C(=O)N(C)C21CC1` [Example 196] had an EC50 of 100 to 1000 nM.

`CCc1ncccc1-c1ccc2c(c1)-n1cc(CO)cc1C(=O)N(C)C21CC1` [Example 203] had an EC50 of 100 to 1000 nM.

Compound `CC(=O)c1cc2n(c1)-c1cc(-c3cccnc3C)ccc1C1(CC1)N(C)C2=O` [Example 195] showed a concentration for a half-maximal effect (EC50) of 100 to 1000 nM.

The compound `CCc1cc2n(c1)-c1cc(-c3cccnc3C)ccc1C1(CC1)N(C)C2=O` [Example 197] gave an EC50 below 100 nM.

The compound `Cc1ncccc1-c1ccc2c(c1)N1CCCC1C(=O)N(C)C21CC1` (stereo not drawn) [Example 209, 5-Methyl-9-(2-methylpyridin-3-yl)-1,2,3,3a-tetrahydro-spiro[benzo[f]pyrrolo[1,2-a][1,4]diazepine-6,1′-cyclopropan]-4(5H)-one] came in with an EC50 above 1000 nM.

The compound `Cc1ncccc1-c1ccc2c(c1)-n1cc(-c3ccccc3)cc1C(=O)N(C)C21CC1` [Example 95, 5-Methyl-2-phenyl-9-(2-methyl-pyridin-3-yl)-spiro[benzo[f]pyrrolo[1,2-a][1,4]diazepine-6,1′-cyclopropan]-4(5H)-one] showed an EC50 below 100 nM.

`Cc1cc2n(c1)-c1cc(-c3ccc(C)nc3)ccc1C1(CC1)N(C)C2=O` [Example 198] registered an EC50 below 100 nM.
